In US20230054887A1, “SWEETENING AND TASTE-MASKING COMPOSITIONS, PRODUCTS AND USES THEREOF” (HEALTHTECH BIO ACTIVES, S.L.U., priority 2017, published 2023):

What was measured:
Type in all cases: in vivo
[1] = Taste profile by calibrated taste panel at concentrations equisweet to 3% sucrose; conditions: 0- to 5-point scale
Procedure: The overall taste profile achieved with the sweetening composition of the present invention was evaluated and compared with the target taste profile of sucrose.
For this assay, all samples were evaluated at the same sweetness level, so each sample was used at a concentration which was equisweet to 3% sucrose. For each sample, the following parameters were evaluated: • Time to first sweetness detection • Time to maximum sweetness • Lingering (time for the sweetness to disappear) • Off-flavour: menthol, liquorice (any tastes that are different from sweetness) • Mouthfeel (density, i.e., the perceived viscosity in the mouth)
These evaluations were carried out by a calibrated taste panel, and conducted at room temperature.
Each of those parameters was evaluated on a 0- to 5-point scale. The values for sucrose were the reference, and were considered the target to emulate.

[2] = Masking bitterness of paracetamol, calibrated test panel, equibitter solution; conditions: for Masking effect (real): 5000 ppm paracetamol
Procedure: The bitter masking effect against paracetamol was assayed. The anti-bittering effect was measured as a dose-response profile vs. a solution of paracetamol.
The following substances were assayed: NHDC alone, gamma-cyclodextrin alone and compositions comprising NHDC and gamma-cyclodextrin in a molar ratio 1:3 (Example B), 1.5:1 (Example C), 1:6 (Example D) and 1:10 (Example E).
For evaluating the masking effect of each substance, several aqueous solutions were prepared, each containing 5000 ppm of paracetamol and different concentrations of the tested substance, namely, 5, 25, 50, 75 and 100 ppm.
A calibrated test panel compared each solution with several solutions of paracetamol in water at different concentrations, and determined the equibitter paracetamol solution. The equibitter solution was calculated as the average of all the evaluations of the panel.
The masking effect was then calculated from the reference amount of paracetamol contained in each tested solution (5000 ppm) and the amount of paracetamol in the equibitter solution, using the following formula (Formula III): […]
For calculating the masking synergies between gamma-cyclodextrin and NHDC, first, for each amount of the combination (Examples A-E), using the molecular weight of each component, the amounts of gamma-cyclodextrin and NHDC contained therein were calculated. For example, 100 ppm of Example B contain 13.61 ppm of NHDC and 86.39 ppm of gamma-cyclodextrin. Then, the antibittering contribution of each component in the composition was calculated, on the basis of the data of Table 13. For example, 13.61 ppm of NHDC provide 9.44% masking effect and 86.39 ppm of gamma-cyclodextrin provide 5.46% masking effect (the antibittering effects for each specific concentration was calculated by interpolation of the data points in Table 13). Therefore, the expected masking effect is calculated as the sum of the contributions of each component. For example, the expected masking effect of 100 ppm of Example B is 14.90 (i.e., 9.44 plus 5.46).
Finally, the masking synergy is calculated using Formula IV: […]
The masking effect of Examples C (NHDC:gCD 1.5:1), D (NHDC:gCD 1:6) and E (NHDC:gCD 1:10) was also evaluated. Aqueous solutions were prepared, each one of them containing 5000 ppm of paracetamol and different concentrations of each one of the tested formulations Ex. C-E, namely, 25 and 50 ppm. Results are disclosed in Tables 15 to 17.

[3] = Masking bitterness of quinine, test panel, equibitter solution; conditions: 250 ppm quinine
Procedure: The bitter masking effect against quinine was assayed, following an analogous procedure to the one used in Example 10 for paracetamol.
The following substances were assayed: NHDC alone, beta-cyclodextrin alone, a composition comprising NHDC and beta-cyclodextrin in a molar ratio 1:1 (Example F) and a composition comprising NHDC and beta-cyclodextrin in a molar ratio 1:3 (Example G).
Analogously to Example 10, several aqueous solutions were prepared, each containing 250 ppm of quinine and different concentrations of the tested substance, namely, 5, 25, 50, 75 and 100 ppm. For each tested solution, a test panel determined the equibitter quinine solution, and the masking effect was calculated using a formula analogous to formula III (substituting 5000 with […]).
The masking synergies between beta-cyclodextrin and NHDC in Examples F and G were calculated following an analogous procedure to the one disclosed in Example 10. Therefore, using the molecular weight of each component, the amounts of beta-cyclodextrin and NHDC contained in each amount of the combinations of Examples F and G were calculated and, then, the antibittering contribution of each component was calculated on the basis of the data of Table 19. The expected masking effect was calculated as the sum of the contributions of each component, and, finally, the masking synergy was calculated (using Formula IV).

COc1ccc(CCC(=O)c2c(O)cc(O[C@@H]3O[C@H](CO)[C@@H](O)[C@H](O)[C@H]3O[C@@H]3O[C@@H](C)[C@H](O)[C@@H](O)[C@H]3O)cc2O)cc1O [NHDC, 1-[4-[[2-O-(6-Deoxy-α-L-mannopyranosyl)-β-D-glucopyranosyl]oxy]-2,6-dihydroxyphenyl]-3-(3-hydroxy-4-methoxyphenyl)propan-1-one]
Lingering [1]: 4.00 | Mouthfeel (density) [1]: 1.75 | Off-flavour: menthol, licorice [1]: 3.25 | Time to first sweetness [1]: 3.75 | Time to maximum sweetness [1]: 4.25 | Total sweetness [1]: 5.00 | Equibitter paracetamol solution ([2]; 5000 ppm paracetamol + 100 ppm tested substance): 3266.7 ppm | Masking effect (real) ([2]; tested substance 5 ppm): 6.00% | Masking effect (real) ([2]; tested substance 25 ppm): 14.00% | Masking effect (real) ([2]; tested substance 50 ppm): 15.33% | Masking effect (real) ([2]; tested substance 75 ppm): 27.00% | Masking effect (real) ([2]; tested substance 100 ppm): 34.67% | Masking effect (real) ([3]; tested substance 5 ppm): 5.00% | Masking effect (real) ([3]; tested substance 25 ppm): 13.33% | Masking effect (real) ([3]; tested substance 50 ppm): 30.00% | Masking effect (real) ([3]; tested substance 75 ppm): 48.33% | Masking effect (real) ([3]; tested substance 100 ppm): 50.00%
